Results reported in US3974140A, “Ureidoacetamido-penicillins” (Bayer Aktiengesellschaft, priority 1970, dated 1976).

How the values were obtained:
Experiment in all cases: MIC, liquid medium test tube series dilution test
E. coli 14 = assay type: cell-based; conditions: E. coli 14, 24 hours, 37°C
How it was run: (§1)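 Tube dilution, liquid complete medium, 37°C/24 h; MIC = non-turbid tube; units/ml.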

E. coli 183/58 = assay type: cell-based; conditions: E. coli 183/58, 24 hours, 37°C
How it was run: as §1

E. coli A 261 = assay type: cell-based; conditions: E. coli A 261, 24 hours, 37°C
How it was run: as §1

E. coli C 165 = assay type: cell-based; conditions: E. coli C 165, 24 hours, 37°C
How it was run: as §1

Klebsiella 63 = assay type: cell-based; conditions: Klebsiella 63, 24 hours, 37°C
How it was run: as §1

Klebsiella K 10 = assay type: cell-based; conditions: Klebsiella K 10, 24 hours, 37°C
How it was run: as §1

[1] = test system: Streptoc. faec. ATCC 9790; assay type: cell-based; conditions: Strep. faec. (Enterococcus) ATCC 9790, 24 hours, 37°C
How it was run: as §1

Proteus vulg. 1017 = assay type: cell-based, Proteus vulgaris; conditions: Proteus vulg. 1017, 24 hours, 37°C
How it was run: as §1

Proteus vulg. 3400 = assay type: cell-based, Proteus vulgaris; conditions: Proteus vulg. 3400, 24 hours, 37°C
How it was run: as §1

Psdm. aerug. Bonn = assay type: cell-based, Pseudomonas aerug.; conditions: 24 hours, 37°C
How it was run: as §1

Psdm. aerug. Walter = assay type: cell-based, Pseudomonas aerug.; conditions: 24 hours, 37°C
How it was run: as §1

Staph. aureus 133 = assay type: cell-based, Staphylococcus aureus; conditions: Staph. aureus 133, 24 hours, 37°C
How it was run: as §1

Staph. aureus 1777 E = assay type: cell-based, Staphylococcus aureus; conditions: 24 hours, 37°C
How it was run: as §1

Row | Compound | MIC (E. coli 14) [units/ml] | MIC (E. coli 183/58) [units/ml] | MIC (E. coli A 261) | MIC (E. coli C 165) | MIC (Klebsiella 63) | MIC (Klebsiella K 10) | MIC [1] | MIC (Proteus vulg. 1017) | MIC (Proteus vulg. 3400) | MIC (Psdm. aerug. Bonn) | MIC (Psdm. aerug. Walter) | MIC (Staph. aureus 133) [units/ml] | MIC (Staph. aureus 1777 E)
1 | Cc1ccc(C(NC(=O)N(C)C(=O)N(C)C)C(=O)N[C@@H]2C(=O)N3[C@@H]2SC(C)(C)[C@@H]3C(=O)O)cc1 (stereo partly drawn) [Example 119, Sodium R,S-α-(3-dimethylaminocarbonyl-3-methyl-ureido)-4-methylbenzylpenicillin] | 25 | 400 | > 400 units/ml | 200 units/ml | > 400 units/ml | 400 units/ml | 100 units/ml | > 400 units/ml | > 400 units/ml | > 400 units/ml | > 400 units/ml | 1.6 | 200 units/ml
2 | CC(=O)N(C)C(=O)NC(C(=O)N[C@@H]1C(=O)N2[C@@H]1SC(C)(C)[C@@H]2C(=O)O)c1ccc(Cl)cc1 (stereo partly drawn) [Example 121, Sodium R,S-α-(3-acetyl-3-methyl-ureido)-4-chlorobenzylpenicillin] | 6 | 100 | > 400 units/ml | 50 units/ml | 100 units/ml | 25 units/ml | 100 units/ml | 100 units/ml | 200 units/ml | 100 units/ml | 100 units/ml | < 0.8 | 100 units/ml
3 | CC(=O)N(C)C(=O)NC(C(=O)N[C@@H]1C(=O)N2[C@@H]1SC(C)(C)[C@@H]2C(=O)O)c1cccs1 (stereo partly drawn) [Example 122, Sodium D,L-α-(3-acetyl-3-methyl-ureido)-α-thienyl(2)-methylpenicillin] | 12.5 | 200 | > 400 units/ml | 50 units/ml | 100 units/ml | 50 units/ml | 100 units/ml | 100 units/ml | 400 units/ml | 200 units/ml | 400 units/ml | 1.6 | 400 units/ml
4 | CN(C(=O)N[C@@H](C(=O)N[C@@H]1C(=O)N2[C@@H]1SC(C)(C)[C@@H]2C(=O)O)c1ccccc1)C(=O)N1CCCCC1 [Example 123, Sodium D(-)-α-(3-[1-piperidyl]-carbonyl-3-methyl-ureido)-benzylpenicillin] | 3.12 | 12.5 | > 400 units/ml | 25 units/ml | 100 units/ml | 50 units/ml | 200 units/ml | 50 units/ml | 100 units/ml | 50 units/ml | 100 units/ml | < 0.8 | 25 units/ml
5 | CN(C(=O)N[C@@H](C(=O)N[C@@H]1C(=O)N2[C@@H]1SC(C)(C)[C@@H]2C(=O)O)c1ccccc1)C(=O)N1CCCC1 [Example 124, Sodium D(-)-α-(3-[1-pyrrolidyl]-carbonyl-3-methyl-ureido)-benzylpenicillin] | 3.12 | 25 | > 400 units/ml | 12.5 units/ml | 50 units/ml | 50 units/ml | 200 units/ml | 50 units/ml | 50 units/ml | 50 units/ml | 100 units/ml | < 0.78 | 25 units/ml
6 | CN(C(=O)N[C@@H](C(=O)N[C@@H]1C(=O)N2[C@@H]1SC(C)(C)[C@@H]2C(=O)O)c1ccccc1)C(=O)N1CCOCC1 [Example 125, Sodium D(-)-α-(3-[4-morpholinyl]-carbonyl-3-methyl-ureido)-benzylpenicillin] | 3.12 | 50 | > 400 units/ml | 25 units/ml | 100 units/ml | 200 units/ml | 200 units/ml | 50 units/ml | 100 units/ml | 50 units/ml | 100 units/ml | 3.12 | 50 units/ml
7 | CCN(CC)C(=O)N(C)C(=O)N[C@@H](C(=O)N[C@@H]1C(=O)N2[C@@H]1SC(C)(C)[C@@H]2C(=O)O)c1ccccc1 [Example 126, Sodium D(-)-α-(3-diethylaminocarbonyl-3-methyl-ureido)-benzylpenicillin] | 12.5 | 50 | > 400 units/ml | 50 units/ml | 200 units/ml | 100 units/ml | 200 units/ml | 100 units/ml | 100 units/ml | 100 units/ml | 200 units/ml | 1.56 | 100 units/ml
8 | CN(C(=O)N[C@@H](C(=O)N[C@@H]1C(=O)N2[C@@H]1SC(C)(C)[C@@H]2C(=O)O)c1ccccc1)C(=O)c1ccc(Cl)cc1[N+](=O)[O-] [Example 127, Sodium D(-)-α-(3-[2-nitro-4-chlorobenzoyl]-3-methyl-ureido)-benzylpenicillin] | 0.78 | 1.56 | 50 units/ml | 3.12 units/ml | 12.5 units/ml | 12.5 units/ml | 25 units/ml | 3.12 units/ml | 6.25 units/ml | 12.5 units/ml | 25 units/ml | < 0.78 | 12.5 units/ml
9 | CN(C(=O)N[C@@H](C(=O)N[C@@H]1C(=O)N2[C@@H]1SC(C)(C)[C@@H]2C(=O)O)c1ccccc1)C(=O)c1ccccc1Br [Example 128, Sodium D(-)-α-(3-[2-bromobenzoyl]-3-methyl-ureido)-benzyl penicillin] | 0.78 | < 0.78 | 50 units/ml | 1.56 units/ml | 6.25 units/ml | 6.25 units/ml | 50 units/ml | 1.56 units/ml | 6.25 units/ml | 6.25 units/ml | 12.5 units/ml | < 0.78 | 12.5 units/ml
10 | Cc1ccccc1C(=O)N(C)C(=O)N[C@@H](C(=O)N[C@@H]1C(=O)N2[C@@H]1SC(C)(C)[C@@H]2C(=O)O)c1ccccc1 [Example 129, Sodium D(-)-α-(3-[2-methylbenzoyl]-3-methyl-ureido)-benzylpenicillin] | 0.78 | 1.56 | 50 units/ml | 1.56 units/ml | 6.25 units/ml | 6.25 units/ml | 50 units/ml | 3.12 units/ml | 6.25 units/ml | 6.25 units/ml | 12.5 units/ml | < 0.78 | 6.25 units/ml
11 | CN(C(=O)C=Cc1cccc([N+](=O)[O-])c1)C(=O)N[C@@H](C(=O)N[C@@H]1C(=O)N2[C@@H]1SC(C)(C)[C@@H]2C(=O)O)c1ccccc1 [Example 131, Sodium D(-)-α-(3-m-nitrocinnamoyl-3-methyl-ureido)-benzylpenicillin] | 0.8 | < 0.8 | 20-100 units/ml | < 0.8 units/ml | 4-20 units/ml | 0.8-4 units/ml | 4-20 units/ml | 0.8-4 units/ml | 0.8-4 units/ml | 0.8-4 units/ml | 0.8-4 units/ml | < 0.8 | 20-100 units/ml
12 | CN(C(=O)Cc1ccc([N+](=O)[O-])cc1)C(=O)N[C@@H](C(=O)N[C@@H]1C(=O)N2[C@@H]1SC(C)(C)[C@@H]2C(=O)O)c1ccccc1 [Example 132, Sodium D(-)-α-(3-[4-nitrophenacetyl]-3-methyl-ureido)-benzylpenicillin] | 0.8 | < 0.8 | > 400 units/ml | 0.8-4 units/ml | 20-100 units/ml | 4-20 units/ml | 4-20 units/ml | 4-20 units/ml | 0.8-4 units/ml | 4-20 units/ml | 4-20 units/ml | < 0.8 | 20-100 units/ml
